Patent publication US20220062240A1, “METHODS OF TREATING CANCER USING A CLK INHIBITOR” (BioSplice Therapeutics, Inc., priority 2018, published 2022)
Like-named read-outs stand apart in the source and are kept apart here.

How the values were obtained:
[1] = system: prostate cancer (5 cell lines); assay: CellTiter-Glo Viability Assay, prostate cancer; assay type: cell-based; conditions: Homo sapiens
[2] = system: haematopoietic & lymphoid tumors (13 cell lines); assay: CellTiter-Glo Viability Assay, haematopoietic & lymphoid tumors; assay type: cell-based; conditions: Homo sapiens, inhibition of cancer cell proliferation
[3] = system: ovarian cancer (4 cell lines); assay: CellTiter-Glo Viability Assay, ovarian cancer; assay type: cell-based; conditions: Homo sapiens, inhibition of cancer cell proliferation
[4] = system: colorectal cancer (6 cell lines); assay: CellTiter-Glo Viability Assay, colorectal cancer; assay type: cell-based; conditions: Homo sapiens, inhibition of cancer cell proliferation
[5] = system: lung cancer (4 cell lines); assay: CellTiter-Glo Viability Assay, lung cancer; assay type: cell-based; conditions: Homo sapiens, inhibition of cancer cell proliferation
[6] = system: pancreatic cancer (8 cell lines); assay: CellTiter-Glo Viability Assay, pancreatic cancer; assay type: cell-based; conditions: Homo sapiens, inhibition of cancer cell proliferation
BT-549 = assay: CellTiter-Glo Viability Assay, breast cancer; assay type: cell-based; conditions: Homo sapiens, 96 h; BT-549, breast cancer, four days; read-out: EC50
CAMA1 = assay: CellTiter-Glo Viability Assay, breast cancer; assay type: cell-based; conditions: Homo sapiens, CAMA-1, 96 h; CAMA1, breast cancer, four days; read-out: EC50
MDA-MB-231-Luc = assay: CellTiter-Glo Viability Assay, breast cancer; assay type: cell-based; conditions: Homo sapiens, 96 h; MDA-MB-231-Luc, breast cancer, four days; read-out: EC50
T47D = assay: CellTiter-Glo Viability Assay, breast cancer; assay type: cell-based; conditions: Homo sapiens, 96 h, breast cancer, four days, read-out: EC50
HCC1599 = assay: CellTiter-Glo Viability Assay, breast cancer; assay type: cell-based; conditions: Homo sapiens, 96 h; HCC1599, breast cancer, four days; read-out: EC50
MCF7 = assay: CellTiter-Glo Viability Assay, breast cancer; assay type: cell-based; conditions: Homo sapiens, 96 h; MCF7, breast cancer, four days; read-out: EC50
ZR-75-1 = assay: CellTiter-Glo Viability Assay, breast cancer; assay type: cell-based; conditions: Homo sapiens, 96 h; ZR-75-1, breast cancer, four days; read-out: EC50
DU4475 = assay: CellTiter-Glo Viability Assay, breast cancer; assay type: cell-based; conditions: Homo sapiens, DU-4475, 96 h; DU4475, breast cancer, four days; read-out: EC50
CLK3 = CLK3 (Homo sapiens, UniProt P49761); assay: CLK3 kinase activity assay (Z-lyte, Ser/Thr 18 peptide)
Chain of CLK3 (P49761 whole entry): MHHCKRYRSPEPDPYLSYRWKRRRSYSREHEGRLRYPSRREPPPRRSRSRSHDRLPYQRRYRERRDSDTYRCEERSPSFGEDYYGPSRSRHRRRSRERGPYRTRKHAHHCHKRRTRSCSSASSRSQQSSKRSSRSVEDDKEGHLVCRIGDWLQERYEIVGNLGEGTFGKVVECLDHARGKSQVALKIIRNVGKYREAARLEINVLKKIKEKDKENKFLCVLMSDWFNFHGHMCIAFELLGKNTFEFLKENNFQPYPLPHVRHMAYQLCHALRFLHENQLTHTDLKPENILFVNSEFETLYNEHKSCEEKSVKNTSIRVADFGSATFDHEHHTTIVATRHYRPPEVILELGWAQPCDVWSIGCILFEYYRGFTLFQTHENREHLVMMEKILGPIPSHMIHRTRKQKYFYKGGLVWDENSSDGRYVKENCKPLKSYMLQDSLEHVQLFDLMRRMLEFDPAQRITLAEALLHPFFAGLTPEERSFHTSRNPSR

CLK2 = target: T1, CLK2 (Homo sapiens, UniProt P49760); assay: CLK2 kinase activity assay (Z-lyte, Ser/Thr 6 peptide); assay type: biochemical; conditions: recombinant CLK2 kinase, ATP 60 μM; read-out: EC50
T1 construct: purchased Thermo Fisher (Life Technologies), Z'-LYTE Kinase Assay Kits
T1 sequence (P49760 whole entry): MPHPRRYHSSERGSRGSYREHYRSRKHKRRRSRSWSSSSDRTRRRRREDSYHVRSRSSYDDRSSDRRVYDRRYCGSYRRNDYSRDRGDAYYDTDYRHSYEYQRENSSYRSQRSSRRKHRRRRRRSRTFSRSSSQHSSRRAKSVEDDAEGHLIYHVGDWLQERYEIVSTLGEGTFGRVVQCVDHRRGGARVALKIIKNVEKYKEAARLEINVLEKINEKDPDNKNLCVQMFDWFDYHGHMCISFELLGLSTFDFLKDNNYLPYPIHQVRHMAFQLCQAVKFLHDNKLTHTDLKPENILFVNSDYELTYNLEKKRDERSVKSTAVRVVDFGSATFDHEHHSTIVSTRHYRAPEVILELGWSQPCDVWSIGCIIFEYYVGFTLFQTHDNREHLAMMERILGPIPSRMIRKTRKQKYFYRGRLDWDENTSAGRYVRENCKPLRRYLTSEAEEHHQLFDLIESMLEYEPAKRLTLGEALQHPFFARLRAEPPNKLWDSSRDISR
Description: All reactions were performed in duplicate.

[7] = system: liver cancer (3 cell lines); assay: CellTiter-Glo Viability Assay, liver cancer; assay type: cell-based; conditions: Homo sapiens, inhibition of cancer cell proliferation
all 50 cell lines = assay: CellTiter-Glo Viability Assay, average across all cell lines; assay type: cell-based; conditions: Homo sapiens; across all 50 cell lines; read-out: average EC50 for inhibition of cancer cell proliferation
Method in brief: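 Proliferation of a multi-tissue human cancer line panel is assessed over four days at 37° C and 5% CO2, seeding 300-3,000 cells/well. Viability is quantified by CellTiter-Glo luminescence, and EC50 values are calculated.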

EC50 ([1]; DU-145, read-out: Prostate cancer EC50 Du-145): > 10 µM
EC50 ([1]; PC-3, PC3 cell line, inhibition of cancer cell proliferation, read-out: Prostate cancer EC50 PC3): 7.87 µM
EC50 ([1]; 22Rv1 cell line, inhibition of cancer cell proliferation, read-out: Prostate cancer EC50 22Rv1): 0.859 µM
EC50 ([1]; LNCap clone FGC cell line, inhibition of cancer cell proliferation, read-out: Prostate cancer EC50 LNCap clone FGC): > 10 µM
EC50 ([1]; VCaP (Sigma) cell line, inhibition of cancer cell proliferation, read-out: Prostate cancer EC50 VCaP (Sigma)): > 10 µM
EC50 ([2]; DND41, DND-41 cell line, read-out: Haematopoietic & Lymphoid tumors, EC50 (μM) DND-41): 0.853 µM
EC50 ([2]; MV4-11, MV-4-11 cell line, read-out: Haematopoietic & Lymphoid tumors, EC50 (μM) MV-4-11): 0.406 µM
EC50 ([2]; Rec1, REC-1 cell line, read-out: Haematopoietic & Lymphoid tumors, EC50 (μM) REC-1): 0.527 µM
EC50 ([2]; SU-DHL-4, SUDHL4 cell line, read-out: Haematopoietic & Lymphoid tumors, EC50 (μM) SUDHL4): 0.501 µM
EC50 ([2]; HL-60 cell line, read-out: Haematopoietic & Lymphoid tumors, EC50 (μM) HL-60): 9.46 µM
EC50 ([2]; JM1 cell line, read-out: Haematopoietic & Lymphoid tumors, EC50 (μM) JM1): 0.195 µM
EC50 ([2]; JURKAT, Clone E6-1 cell line, read-out: Haematopoietic & Lymphoid tumors, EC50 (μM) JURKAT, Clone E6-1): 2.79 µM
EC50 ([2]; JeKo-1 cell line, read-out: Haematopoietic & Lymphoid tumors, EC50 (μM) JeKo-1): 0.713 µM
EC50 ([2]; KASUMI-1 cell line, read-out: Haematopoietic & Lymphoid tumors, EC50 (μM) KASUMI-1): 5.07 µM
EC50 ([2]; Loucy cell line, read-out: Haematopoietic & Lymphoid tumors, EC50 (μM) Loucy): 1.28 µM
EC50 ([2]; MOLT-4 cell line, read-out: Haematopoietic & Lymphoid tumors, EC50 (μM) MOLT-4): 7.26 µM
EC50 ([2]; TF-1 cell line, read-out: Haematopoietic & Lymphoid tumors, EC50 (μM) TF-1): 7.92 µM
EC50 ([2]; TOLEDO cell line, read-out: Haematopoietic & Lymphoid tumors, EC50 (μM) TOLEDO): 0.302 µM
EC50 ([3]; PA-1, PA1 cell line, read-out: Ovarian cancer, EC50 (μM) PA1): 8.98 µM
EC50 ([3]; TOV112D, TOV-112D cell line, read-out: Ovarian cancer, EC50 (μM) TOV-112D): > 10 µM
EC50 ([3]; OV-90 cell line, read-out: Ovarian cancer, EC50 (μM) OV-90): > 10 µM
EC50 ([3]; OVCAR-3 cell line, read-out: Ovarian cancer, EC50 (μM) OVCAR-3): 3.22 µM
EC50 ([4]; HCT-116, HCT116 cell line, read-out: Colorectal cancer, EC50 (μM) HCT116): 3.45 µM
EC50 ([4]; HT-29, HT29 cell line, read-out: Colorectal cancer, EC50 (μM) HT29): > 10 µM
EC50 ([4]; SW-620, SW620 cell line, read-out: Colorectal cancer, EC50 (μM) SW620): 2.34 µM
EC50 ([4]; DLD-1 cell line, read-out: Colorectal cancer, EC50 (μM) DLD-1): 1.64 µM
EC50 ([4]; SW48 cell line, read-out: Colorectal cancer, EC50 (μM) SW48): 3.77 µM
EC50 ([5]; A-427, A427 cell line, read-out: Lung cancer, EC50 (μM) A427): > 10 µM
EC50 ([5]; HCC78, HCC-78 cell line, read-out: Lung cancer, EC50 (μM) HCC-78): > 10 µM
EC50 ([5]; NCI-H460 cell line, read-out: Lung cancer, EC50 (μM) NCI-H460): > 10 µM
EC50 ([5]; NCI-H522 cell line, read-out: Lung cancer, EC50 (μM) NCI-H522): 5.83 µM
EC50 ([6]; BXPC-3, BxPC3 cell line, read-out: Pancreatic cancer, EC50 BxPC3): > 10 µM
EC50 ([6]; CAPAN-1, Capan1 cell line, read-out: Pancreatic cancer, EC50 Capan1): > 10 µM
EC50 ([6]; Capan-2, Capan2 cell line, read-out: Pancreatic cancer, EC50 Capan2): > 10 µM
EC50 ([6]; MIA PaCa-2 cell line, read-out: Pancreatic cancer, EC50 MIA PaCa-2): 3.52 µM
EC50 ([6]; PANC 05.04 cell line, read-out: Pancreatic cancer, EC50 PANC 05.04): > 10 µM
EC50 ([6]; PANC-1 cell line, read-out: Pancreatic cancer, EC50 PANC-1): > 10 µM
EC50 ([6]; UPAFII cell line, read-out: Pancreatic cancer, EC50 UPAFII): 8.92 µM
EC50 (BT-549): > 10 µM
EC50 (CAMA1): > 10 µM
EC50 (MDA-MB-231-Luc): > 10 µM
EC50 (T47D): > 10 µM
EC50 (HCC1599): 0.407 µM
EC50 (MCF7): > 10 µM
EC50 (ZR-75-1): > 10 µM
EC50 (DU4475): 7.19 µM
EC50 (CLK3): 0.031 µM
EC50 (CLK2): 0.0014 µM
EC50 ([7]; SNU-398, SNU398 cell line, read-out: Liver cancer, EC50 SNU398): 0.232 µM
EC50 ([7]; HEPG2 cell line, read-out: Liver cancer, EC50 HEPG2): > 10 µM
EC50 ([7]; PLC/PRF/5 cell line, read-out: Liver cancer, EC50 PLC/PRF/5): > 10 µM
SMILES: CN(C)Cc1cncc(-c2ccc3[nH]nc(-c4cc5c(-c6ccoc6)ccnc5[nH]4)c3c2)c1 [Compound 51]
EC50 (all 50 cell lines): 6.51 µM
